This note sets out measurements from patent US7208481B2, “Aminodiphosphonate apolipoprotein E modulators” (ILEX Products, Inc., priority 2002, dated 2007).

“Also recorded” adds a separate entry of the source.

One data set has as its system rat plasma apoE. Kind of data set: In vivo rat model: plasma apoE by ELISA after 5 days of oral treatment. As for the experimental part:
Rats fed a normal diet are a convenient model recently proposed for the screening of apoE modulating compounds (Leininger-Muller & Siest, 1996, herein incorporated by reference).
(§1) This model was validated by testing the hypocholesterolemic drug gemfibrozil (200 mg/kg) as reference compound.
(§2) […] Test compounds were given as a suspension in 20% Tween-80 supplemented with 0.5% carboxymethylcellulose. The control group received 1 ml vehicle alone. After a treatment period of 5 days, rats were weighed, sacrificed by decapitation under pentobarbital anesthesia after an overnight fast. Blood was collected on EDTA and plasma was used for analysis.
(§3) ApoE was quantified by an ELISA method using a goat anti-apolipoprotein E antibody. Briefly, a dilution to 1/200 of rat plasma was coated on microtiter plates. ApoE was recognized by the polyclonal antibody; the conjugate antibody (anti-goat IgG peroxidase) was then added for substrate biochemical recognition. Apolipoprotein E was expressed as % change from mean control value. Cholesterol was measured with a commercially available enzymatic kit. Results were expressed as % change from control group.
(In general: An ELISA detects its analyte on a solid surface through an enzyme-linked reagent.)

For another data set, the system named is rat plasma HDLc. Briefly: In vivo rat model: plasma HDL cholesterol after 5 days of oral treatment. The settings on record: for Rat Plasma HDLc (% change): dose-response experiment, OFA rats, Day 5. The protocol:
as §1, §2, §3

The test system of data set [1] is secretion of apoE by THP-1 cells. Briefly: Secretion of apoE by THP-1 cells, apoE determined by ELISA. The data set is classed as cell-based, human. The settings on record: reference compound for assay validation. The protocol: The THP-1 cell line was derived from the peripheral blood of a child with acute monocytic leukaemia and were obtained from the European Collection of Animal Cell Cultures (ECACC, #88081201). […] The cells were grown as non-adherent cells in RPMI 1640 culture medium, 2 mM glutamine, 20 μM 2-mercaptoethanol. Fresh medium was added to maintain cell density between 2 and 9×10^5 cells/ml. Once a week, new cultures were initiated by inoculating 10 ml of medium with 2×10^6 cells in a 75 cm^2 plate. The plates were kept at 37° C. in a 5% CO2 atmosphere. For screening, cells were seeded in 24-well plates at the density of 2×10^5 cells per well. Phorbol-12-myristat-13-acetate (PMA) was added at 0 and 5 nM to initiate TBP-1 differentiation into adherent macrophage-like cells. Vehicles, reference compounds and test compounds were added simultaneously at concentrations varying from 50 μM and incubated for 72 hours. […]
Ninety-six well-microtiter plates were coated by incubating with a 5% gelatin solution from porcine skin, bloom 60 in 50 mM carbonate-bicarbonate buffer, pH9.6 at the concentration of 200 μl/well, for 2 hours at 37° C. The coating solution was carefully removed and the sample to be analyzed was added (100 μl/well) at the appropriate dilution. […] The absorbance at 492 nm versus 620 nm was read on a microplate photometer and the results were then converted in human apoE ng equivalent. […]

Where [2] appears, read: OFA rats, 200 mg/kg/day p.o. for 5 days, change from mean control value.
[3] abbreviates: OFA rats, 50, 100, 200 mg/kg p.o. for 5 days.
Setting [4] is: rats fed a normal diet, 200 mg/kg/day for 5 days.

With `CC1=C(/C=C/C(C)=C/C=C/C(C)=C/C(=O)O)C(C)(C)CCC1` [ATRA, all-trans retinoic acid, reference compound], the “plasma level of apoE in rats (effect in words)” value with rat plasma apoE (rats, dose not given) is recorded as “decrease”. Moreover, the “HDL cholesterol level in rats (effect in words)” value in the data set on rat plasma HDLc (rats, dose not given) is listed as “decrease”. In addition, the “production of apoE by THP-1 cells (effect in words)” value in data set [1] is “decreased; also recorded: potent inhibitor”.

Compound `COP(=O)(OC)C(Nc1ccccn1)P(=O)(OC)OC` [Compound 1, Tetramethyl N-(2-pyridyl)aminomethylenediphosphonate] registered a melting point of 162 to 164 °C. Besides, the “Rat Plasma apoE (% change)” value in the data set on rat plasma apoE (setting [2]) is given as “+69 % change”.

For `CCOP(=O)(OCC)C(Nc1ccccn1)P(=O)(OCC)OCC` [Compound 2, Tetraethyl N-(2-pyridyl)aminomethylenediphosphonate], the “Rat Plasma apoE (% change)” value in the data set with rat plasma apoE (setting [2]) is recorded as “+44 % change”; in the data set with rat plasma apoE (dose-response experiment, OFA rats, 50 mg/kg/day p.o. for 5 days, Day 5) it was “+38 % change”; with rat plasma apoE (dose-response experiment, OFA rats, 100 mg/kg/day p.o. for 5 days, Day 5), “+37 % change”; with rat plasma apoE (dose-response experiment, OFA rats, 200 mg/kg/day p.o. for 5 days, Day 5) it was “+62 % change”. For the same compound, the “plasma apoE level, dose dependence (in words)” value with rat plasma apoE (setting [3]) was “increased in a dose-response way”. Further, in the data set with rat plasma HDLc (setting [3]), the “plasma HDL cholesterol (HDLc) level, dose dependence (in words)” value was “increased in a dose-response way”. The “Rat Plasma HDLc (% change)” value in the data set on rat plasma HDLc (50 mg/kg/day p.o. for 5 days) is “+27 % change”; in the data set with rat plasma HDLc (100 mg/kg/day p.o. for 5 days) it was “+34 % change”; with rat plasma HDLc (200 mg/kg/day p.o. for 5 days), “+68 % change”.

`CC(C)OP(=O)(OC(C)C)C(Nc1ccccn1)P(=O)(OC(C)C)OC(C)C` [Compound 3, Tetraisopropyl N-(2-pyridyl)aminomethylenediphosphonate] displayed a melting point of 98 to 100 °C. Also, the “Rat Plasma apoE (% change)” value with rat plasma apoE (po, 200 mg/kg/day, 120 h) is “+16 % change”.

In turn, `CCOP(=O)(OCC)C(Nc1cnc2ccccc2c1)P(=O)(OCC)OCC` [Compound 9, Tetraethyl N-(3-quinolinyl)aminomethylenediphosphonate] showed a melting point of 156 to 158 °C.

For the compound `Cc1ccc(C)c(OCCCC(C)(C)C(=O)O)c1` [gemfibrozil, reference compound], the “apoE increase in rats (model validation)” value with rat plasma apoE (setting [4]) is “+75%”. Further, in the data set with rat plasma HDLc (setting [4]), the “HDL cholesterol increase in rats (model validation)” value was “+42%”.

By melting point is commonly meant the temperature of the solid-liquid transition.
